Reference: publication PMC8066339, “Optimization of 2-Acylaminocycloalkylthiophene Derivatives for Activity against Staphylococcus aureus RnpA” (Antibiotics, 2021)
≈ marks a conversion by molar mass, not a printed value. Where “and” joins values, the source holds several entries; their conditions need not be identical. Identical values can stand only once. Entries after “also recorded” stand apart in the source; their conditions may differ. Like-named read-outs stand apart in the source and are kept apart here.

Key:
Assay type in all cases: cell-based, Staphylococcus aureus
[1] = system: RnpA-mediated mRNA turnover of spa mRNA; assay: Cellular mRNA turnover assay (spa mRNA, qRT-PCR after rifampin arrest); conditions: 0.5X MIC for 30 min, 0 and 5 min post-transcriptional arrest, Figure 3 left
Procedure: As a more direct measure of whether the antimicrobial effects were RnpA-dependent, studies were performed to measure their inhibition of cellular RnpA-mediated mRNA turnover of spa mRNA. The spa mRNA is a natural substrate of RnpA mRNA degradation, as previously described, and can be utilized for an intracellular readout of inhibition for RnpA-mediated mRNA turnover. To do so, S. aureus cells were treated with a sub-inhibitory concentration of compound (0.5X MIC) then challenged with the antibiotic rifampicin to arrest de novo RNA synthesis. Quantitative RT-PCR was used to measure the cellular titers of spa mRNA at 0 and 5 min post-transcriptional arrest.
S.aureus RNA half-life measurements were performed as described. […] To inhibit de novo RNA synthesis, rifampin (Alfa Aesar, Haverhill, MA, USA) was added to the culture at a final concentration of 200 µg mL^−1. Half of the culture was immediately removed and combined with an equal volume of ice-cold acetone:ethanol (1:1 v/v). The remainder of the culture was returned to the 37 °C incubator for an additional 5 min, then combined with an equal volume of ice-cold acetone:ethanol (1:1 v/v) and stored at −80 °C.
(§1) Cell suspensions in acetone:ethanol were thawed on ice and centrifuged at 1560× g for 10 min at 4 °C. Acetone:ethanol was decanted, and pellets were left to air-dry for 5 min. Cell pellets were resuspended in 500 µL ice-cold TE buffer (10 mM Tris-HCl, pH 8.0, 1mM EDTA) and transferred to FastPrep Lysing Matrix B tubes (MP Biomedicals, Santa Ana, CA). Mixtures were homogenized at 5 m∙s^−1 for 20 s, rested on ice for 5 min, then homogenized again at 4.5 m∙s^−1 for 20 s in a FastPrep-24 instrument. Cell lysates were centrifuged at 16,200× g for 15 min at 4 °C to remove cell debris. Total bacterial RNA and tRNA^Tyr populations were isolated from the supernatant using Qiagen RNeasy Mini kits and miRNeasy kits, respectively, following the manufacturer’s recommendations (Germantown, MD). For qRT-PCR, 2 µg of RNA substrate was treated with 2 units of DNase I (New England Biolabs, Ipswich, MA, USA) for 1 h at 37 °C and re-purified using Qiagen RNeasy Mini kits, following the manufacturer’s instructions. RNA was measured for concentration and quality using a NanoDrop spectrophotometer. Quantabio (Beverly, MA, USA) qScript cDNA Supermix was used to convert 200 ng of RNA into cDNA, following manufacturer’s instructions, which was subsequently amplified using Quantabio SYBR Green Fast Mix following manufacturer’s instructions. Fluorescence was read on the BioRad (Hercules, CA, USA) CFX 96 Connect Real Time Machine. Transcript levels were compared to the internal control 16S rRNA (ΔΔCt) and plotted as fold change compared to the control. The following primer pairs were used in this study for qRT-PCR: spa forward—[…]; spa reverse—[…]; –15 ptRNA^Tyr forward—[…]; tRNA^Tyr reverse—TGGTG GAGGGGGGCAGATTC; 16S rRNA forward—[…]; 16S rRNA reverse—[…].

[2] = system: RnpA-mediated ptRNA processing; assay: Cellular ptRNA^Tyr accumulation (qRT-PCR); conditions: 0.5X MIC for 1 h, Figure 3 right
Procedure: To evaluate the effects of each analog on cellular RnpA-mediated ptRNA processing, S. aureus cells were treated with a sub-inhibitory concentration of each analog (0.5X MIC) and qRT-PCR was used to measure ptRNA^Tyr accumulation, as previously described. […] Compounds RNP0007, 11,13, 14, 15, and 16 had little effect on ptRNA^Tyr levels in the cellular context.
Cellular S. aureus tRNA^Tyr pools were measured as previously described. […] The culture was removed, combined with an equal volume of acetone:ethanol (1:1 v/v) and stored at −80 °C.
as §1

S. aureus strain UAMS-1 = assay: Minimum inhibitory concentration (MIC) testing, CLSI broth microdilution; conditions: for MIC: Staphylococcus aureus, S. aureus strain UAMS-1, read-out: MIC
Procedure: Staphylococcus aureus strains UAMS-1 is a well-characterized antibiotic susceptible osteomyelitis clinical isolate (Blevins Infect. Immun 2003). For experiments, UAMS-1 was cultured in Mueller Hinton (MH) broth and processed as described below. Escherichia coli strain BL21 (DE3) was cultured in Luria–Bertani (LB) and supplemented with ampicillin (50 µg ml^−1) where indicated.
Minimum inhibitory concentration (MIC) was performed according to the Clinical and Laboratory Standards Institute (CLSI) guidelines. Briefly, individual wells of a 96-well microtiter plate were inoculated with 10^4 colony forming units (CFU) of S. aureus UAMS-1 containing two-fold increasing concentrations (0 µM to 100 µM) of the indicated antibiotic or putative RnpA inhibitor and grown at 37 °C for 16 h in MH broth. The MIC was defined as the lowest concentration of compound in which there was no visible bacterial growth detected by the unaided eye.

SMILES	Inhibition of cellular spa mRNA turnover (in words) [1]	Cellular ptRNA^Tyr accumulation (in words) [2]	MIC (S. aureus strain UAMS-1; UAMS1)	MIC (S. aureus strain UAMS-1; UAMS1, 16 h) [µM]	Fold reduction of antimicrobial activity, six-membered vs seven-membered ring matched pair (S. aureus strain UAMS-1; matched molecular pairs)	Fold improvement in anti-staphylococcal activity (MIC) over JR1 (S. aureus strain UAMS-1; compared with JR1) [fold]
O=C(Nc1cccc(C(F)(F)F)c1)c1c(NC(=O)C(F)(F)F)sc2c1CCCC2 [RNP0016]	strongest stabilizers of mRNA	little effect	3.12 µM and 1.36 µg/mL			
O=C(Nc1ccc(F)cc1)c1c(NC(=O)C(F)(F)F)sc2c1CCCC2 [RNP0014]	strongest stabilizers of mRNA	little effect	6.25 µM and 2.4 µg/mL			
Cc1cccc(NC(=O)c2c(NC(=O)C(F)(F)F)sc3c2CCCCC3)c1 [RNP0010]	strong inhibitor	largest increases	3.12 µM and 1.24 µg/mL	3.21 (≈ 1.27 µg/mL)		
O=C(Nc1ccc(C(F)(F)F)cc1)c1c(NC(=O)C(F)(F)F)sc2c1CCCC2 [RNP0015]		little effect	0.78 µM and 0.34 µg/mL		fourfold less potent	
O=C(Nc1cccc(F)c1)c1c(NC(=O)C(F)(F)F)sc2c1CCCCC2 [RNP0008]	weakest inhibitors	largest increases	0.391 µM and 0.16 µg/mL			
O=C(Nc1ccc(C(F)(F)F)cc1)c1c(NC(=O)C(F)(F)F)sc2c1CCCCC2 [RNP0012]	moderate inhibitors; also recorded: significantly reduced RnpA-associated mRNA degradation	largest increases; also recorded: top-performing cellular ptRNA processing inhibitor	0.19 µM and 0.086 µg/mL			6.6
O=C(Nc1ccc(F)cc1)c1c(NC(=O)C(F)(F)F)sc2c1CCCCC2 [RNP0009]	weakest inhibitors	largest increases	0.78 µM and 0.32 µg/mL			
O=C(Nc1cccc(F)c1)c1c(NC(=O)C(F)(F)F)sc2c1CCCC2 [RNP0013]		little effect	6.25 µM and 2.4 µg/mL			
O=C(Nc1cccc(C(F)(F)F)c1)c1c(NC(=O)C(F)(F)F)sc2c1CCCCC2 [RNP0011]	moderate inhibitors	little effect	0.391 µM and 0.18 µg/mL			
O=C(Nc1cccc(Cl)c1)c1c(NC(=O)C(F)(F)F)sc2c1CCCCC2 [RNP0007]		little effect	0.391 µM and 0.16 µg/mL			
